Experiment [1] concerns the target rat recombinant 11β-HSD1 (Rattus norvegicus (Rat), UniProt P16232). The experiment can be described thus: Measurement test for rat 11β-HSD1 inhibitory activity (HTRF cortisol detection). It is filed as biochemical. The conditions noted are these: rat recombinant 11β-HSD1, 200 nM cortisone, 40 μM NADPH, pH 6.6, room temperature 1 hour. The method, then:
The procedure for measuring the 11β-HSD1-inhibitory activity is as follows. The enzyme reaction and the measurement were carried out using a 384-well plate. The enzyme was prepared in accordance with Journal of Biological Chemistry, 2001, Vol. 276, p. 21343-21350. The reaction was carried out by adding a test compound at various concentrations to a reaction liquid consisting of a 5 mM phosphate buffer (pH 6.6), 200 nM cortisone, 40 μM reduced nicotinamide adenine dinucleotide phosphate (NADPH), and rat recombinant 11β-HSD1, followed by incubating at room temperature for one hour (10 μl/well). The test compound was prepared by dissolving in dimethyl sulfoxide (DMSO) such that a DMSO concentration reached 1% in the reaction liquid. After the enzyme reaction was completed, the enzyme inhibitory action was measured by detecting cortisol using a homogeneous time-resolved fluorescence (HTRF) method. Each of a d2-labeled cortisol containing 400 μM carbenoxolone and a cryptate-labeled cortisol antibody (CIS Bio International Co., Ltd.) was added at 5 μl/well, followed by incubating at room temperature for 2 hours, and then the fluorescence intensity was measured using a fluorophotometer (trade name: ARVO HTS 1420, Perkin Elmer/Wallac), and the enzyme inhibitory activity was calculated from the fluorescence intensity ratio of two wavelengths (665 nm/620 nm).
The measurement results were calculated by averaging the values of 3 wells of the same condition. The ratio when DMSO was added instead of the test compound was taken as 0% and the ratio when 11β-HSD1 was not added was taken as 100%, thereby calculating the 50% inhibition concentration of the test compound as IC50 of the compound inhibitory activity.
(TR-FRET usually uses a lanthanide donor and a delayed reading to cut background.)

The test system of experiment [2] is spinal nerve ligation model. As to the kind of experiment: Test of spinal nerve ligation model (von Frey hair test). It counts as in vivo, rat. The conditions noted are these: read-out: Improvement rate % (dose). The method, then:
The test was carried out in accordance with Pain, 1992, Vol. 50, p. 355-363. The lumbar skin and muscle of a rat (SD, male, 5- to 6-week old) were incised under pentobarbital anesthesia and the transverse processes of lumbar L6 were removed to expose lumbar nerves. The L5 and L6 spinal nerves were ligated with silk thread and then the wound was sutured. The treatment was performed on the left side. However, in a case of a pseudo-operation, the wound was sutured without carrying out the nerve ligation.
Drug efficacy evaluation was carried out by a von Frey hair test 7 to 20 days after the operation. The withdrawal response threshold was calculated in accordance with Journal of Neuroscience Methods, 1994, Vol. 53, p. 55-63. The plantar of hindlimb was stimulated using 8 kinds of von Frey filaments (0.41 to 15.14 g), and 50% withdrawal response thresholds were determined by an up-and-down method. The test was initiated from 2.04 g of the filament, and a case where the withdrawal response of the limb was observed was taken as presence of the response.
On the previous day of the drug efficacy evaluation, the animals showing reduction in the thresholds according to a von Frey hair test were preliminarily selected and grouped such that the difference in the average values of the thresholds between the respective groups was reduced.
The test substance was suspended in a 0.5% methylcellulose solution and administered orally 2 hours before the drug efficacy evaluation. The evaluation of the test substance was carried out by determining the improvement rate of the group administered with the test substance when the threshold of the limb on the treatment side in the pseudo-operation animal group was taken as 100% and the threshold of the limb on the treatment side in an operated animal group administered with a solvent was taken as 0%.

For experiment [3], the system named is fibromyalgia model induced by repeated administration of reserpine. The experiment can be described thus: Test of fibromyalgia model induced by repeated administration of reserpine (muscle pressure pain threshold). The conditions noted are these: 1 mg/kg oral, maximum among 30, 60 and 120 min after administration, normal rat = 100%, reserpine + solvent = 0%, SD rat. It counts as in vivo. The method, then: The test was carried out in accordance with Pain, 2009, Vol. 146, p. 26-33. Rats (SD, male, 7 weeks old) were used.
The threshold measurement for the muscle pressure pain was carried out according to the method of Schafers et al. (Pain, 2003, Vol. 104, p. 579-588). The pressure stimulus gradually increasing up to 250 g was applied to the gastrocnemius muscle of the right hindlimb of the rat. […] The measurements were carried out in triplicate for each point of time and the average thereof was taken as a measured value.
A solvent (0.5% acetic acid/water) or reserpine at 1 mg/kg was subcutaneously administered on a dorsal subcutaneous part for 3 days once per day. The administration volume of the solvent or reserpine was taken as 1 mL per kg of a body weight of an animal. The muscle pressure pain thresholds of the respective rats were measured at 6 days after the initiation of the administration of the solvent or reserpine, and grouped such that the difference in the average values of the thresholds between the respective groups was reduced.
The drug efficacy evaluation was carried out the next day. The test substance was suspended in a 0.5% methylcellulose solution and the muscle pressure pain thresholds were measured 30, 60, and 120 minutes after oral administration. For the normal rats, drug administration was not carried out, and only the measurement of the muscle pressure pain thresholds was carried out. […] The evaluation of the test substance was carried out by determining the maximal improvement rate of the group administered with the test substance among at time points of 30, 60, and 120 minutes after the administration when the muscle pressure pain threshold of the normal rat is taken as 100% and the muscle pressure pain threshold of the rat treated with reserpine while administered with the solvent is taken as 0%.

[4] abbreviates: 0.3 mg/kg oral, 2 hours before evaluation, 50% withdrawal response threshold, pseudo-operation group = 100%, operated solvent group = 0%, SD rat.

Like-named read-outs stand apart in the source and are kept apart here.

rat recombinant 11β-HSD1, sequence (P16232 whole entry): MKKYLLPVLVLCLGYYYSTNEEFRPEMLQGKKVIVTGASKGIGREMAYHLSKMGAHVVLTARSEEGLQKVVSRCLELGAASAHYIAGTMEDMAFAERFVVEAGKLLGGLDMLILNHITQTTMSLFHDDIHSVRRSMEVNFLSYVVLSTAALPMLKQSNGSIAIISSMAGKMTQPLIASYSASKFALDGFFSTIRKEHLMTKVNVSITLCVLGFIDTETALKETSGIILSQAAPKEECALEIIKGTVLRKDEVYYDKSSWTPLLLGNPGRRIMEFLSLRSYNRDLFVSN

Turning to `Cn1c(-c2ccc(F)cc2Br)nnc1C(C)(C)Oc1c(F)cc(F)cc1F` [Compound 1], in experiment [1], the IC50 worked out at 35 nM. The inhibition in vivo at 0.3 mg/kg in experiment [2] (setting [4]) stood at 71%.
For the compound `Cn1c(-c2ccc(F)cc2Cl)nnc1C(C)(C)Oc1c(F)cc(F)cc1F` [Compound 2], the inhibition in vivo at 0.3 mg/kg in experiment [2] (Rattus norvegicus, po, 2 h) amounted to 88%. Besides, in experiment [3], the “Maximum improvement rate % (dose)” value is 30 (1 mg/kg) %.
Consider `Cn1c(-c2ccccc2Cl)nnc1C(C)(C)Oc1c(F)cc(F)cc1F` [Compound 3], for which the half-maximal inhibitory concentration (IC50) in experiment [1] worked out at 24 nM. For the same compound, in experiment [2] (setting [4]), the inhibition in vivo at 0.3 mg/kg was found to be 62%.
Regarding `Cl.Cn1c(-c2ccccc2Cl)nnc1C(C)(C)Oc1c(F)cc(Cl)cc1F` [Compound 4], the IC50 in experiment [1] is 32 nM. Moreover, the inhibition in vivo at 0.3 mg/kg in experiment [2] (setting [4]) was 85%. The “Maximum improvement rate % (dose)” value in experiment [3] is on record as 82 (1 mg/kg) %.
With `Cn1c(-c2ccc(F)cc2Cl)nnc1C(C)(C)Oc1c(F)cc(Cl)cc1F` [Compound 5], in experiment [1], the IC50 turned out to be 263 nM. Besides, in experiment [2] (setting [4]), the inhibition in vivo at 0.3 mg/kg worked out at 65%.
Turning to `Cn1c(-c2ccccc2F)nnc1C(C)(C)Oc1c(F)cc(F)cc1F` [Compound 6], the IC50 in experiment [1] turned out to be 322 nM. For the same compound, the inhibition in vivo at 0.3 mg/kg in experiment [2] (setting [4]) stood at 52%.
The matching figures for `Cn1c(-c2c[nH]nc2C(F)(F)F)nnc1C(C)(C)Oc1c(F)cc(F)cc1F` [Compound 7]: 32 nM and 73%.
Turning to `CCn1c(-c2ccc(C(N)=O)cc2)nnc1C(C)(C)Oc1c(F)cc(Cl)cc1F` [Compound 8], the inhibition in vivo at 0.3 mg/kg in experiment [2] (Rattus norvegicus, po, 2 h) came out at 87%. In addition, in experiment [3], the “Maximum improvement rate % (dose)” value was 41 (1 mg/kg) %.
`CC(C)n1c(-c2ccc(C(N)=O)cc2)nnc1C(C)(C)Oc1c(F)cc(F)cc1F` [Compound 9]: the IC50 in experiment [1] worked out at 26 nM. The inhibition in vivo at 0.3 mg/kg in experiment [2] (setting [4]) came to 78%.
On to `Cn1c(-c2ccc(C(N)=O)cc2F)nnc1C(C)(C)Oc1c(F)cc(Cl)cc1F` [Compound 10], for which the inhibition in vivo at 0.3 mg/kg in experiment [2] (setting [4]) is 81%. In experiment [3], the “Maximum improvement rate % (dose)” value is 65 (1 mg/kg) %.
With `CC(C)(Oc1ccc(F)cc1F)c1nnc(-c2ccc(C(N)=O)cc2F)n1C1CC1` [Compound 11], the IC50 in experiment [1] was determined as 64 nM. In experiment [2] (setting [4]), the inhibition in vivo at 0.3 mg/kg is 82%. In addition, the “Maximum improvement rate % (dose)” value in experiment [3] is 83 (1 mg/kg) %.
For the compound `Cn1c(-c2ccc(C(N)=O)cc2F)nnc1C(C)(C)Oc1c(F)cc(F)cc1F` [Compound 12], in experiment [1], the IC50 came out at 182 nM. The inhibition in vivo at 0.3 mg/kg in experiment [2] (setting [4]) turned out to be 54%.
For the compound `CC(C)n1c(-c2ccc(C(N)=O)cc2)nnc1C(C)(C)Oc1c(F)cc(Cl)cc1F` [Compound 13], the IC50 in experiment [1] worked out at 68 nM. Moreover, the inhibition in vivo at 0.3 mg/kg in experiment [2] (setting [4]) was 53%.
For the compound `CC(C)(Oc1ccc(F)cc1F)c1nnc(-c2ccc(C(N)=O)cc2Cl)n1C1CC1` [Compound 14], in experiment [1], the IC50 is 16 nM. For the same compound, in experiment [2] (setting [4]), the inhibition in vivo at 0.3 mg/kg was determined as 73%.
Turning to `CC(C)n1c(-c2ccc(C(N)=O)cc2F)nnc1C(C)(C)Oc1c(F)cc(F)cc1F` [Compound 15], the inhibition in vivo at 0.3 mg/kg in experiment [2] (Rattus norvegicus, po, 2 h) is 86%. For the same compound, in experiment [3], the “Maximum improvement rate % (dose)” value is 45 (1 mg/kg) %.

A word on the IC50: it is the midpoint of a concentration-inhibition curve.

Source of the values: patent US9765040B2, “Therapeutic agent for pain” (Astellas Pharma Inc., priority 2010, dated 2017).
